Measured values as given in the kinase profiling compilation of Christmann-Franck et al. (2016).
Several values for one entry are separate records, joined by “and”; a condition that tells them apart may be missing. Equal values may be shown once.

How the values were obtained:
Assay in all cases: Caliper, Mobility shift assay off-chip
AKT1 (human) = AKT1 (human) (UniProt P31749)
AURKC (human) = AURKC (human) (UniProt Q9UQB9)
CAMK2G (human) = CAMK2G (human) (UniProt Q13555)
CDC42BPB (human) = CDC42BPB (human) (UniProt Q9Y5S2)
CDK1 (human) = CDK1 (human) (UniProt P06493)
CDK4 (human) = CDK4 (human) (UniProt P11802); conditions: compound 0.2 µM
CSNK1D (human) = CSNK1D (human) (UniProt P48730)
CSNK1D (human), sequence (P48730 whole entry, looked up): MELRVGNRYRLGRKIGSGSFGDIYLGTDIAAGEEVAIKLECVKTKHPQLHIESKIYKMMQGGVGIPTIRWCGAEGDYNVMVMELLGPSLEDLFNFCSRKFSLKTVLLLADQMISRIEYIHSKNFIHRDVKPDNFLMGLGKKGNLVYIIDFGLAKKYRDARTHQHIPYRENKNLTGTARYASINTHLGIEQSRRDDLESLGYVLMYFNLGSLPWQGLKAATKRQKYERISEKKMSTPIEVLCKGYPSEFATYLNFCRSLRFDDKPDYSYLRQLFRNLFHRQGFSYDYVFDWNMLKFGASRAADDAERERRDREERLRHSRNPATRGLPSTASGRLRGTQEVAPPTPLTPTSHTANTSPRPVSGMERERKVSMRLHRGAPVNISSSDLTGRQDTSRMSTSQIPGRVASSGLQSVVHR

DAPK1 (human) = DAPK1 (human) (UniProt P53355)
DAPK1 (human), sequence (P53355 whole entry, looked up): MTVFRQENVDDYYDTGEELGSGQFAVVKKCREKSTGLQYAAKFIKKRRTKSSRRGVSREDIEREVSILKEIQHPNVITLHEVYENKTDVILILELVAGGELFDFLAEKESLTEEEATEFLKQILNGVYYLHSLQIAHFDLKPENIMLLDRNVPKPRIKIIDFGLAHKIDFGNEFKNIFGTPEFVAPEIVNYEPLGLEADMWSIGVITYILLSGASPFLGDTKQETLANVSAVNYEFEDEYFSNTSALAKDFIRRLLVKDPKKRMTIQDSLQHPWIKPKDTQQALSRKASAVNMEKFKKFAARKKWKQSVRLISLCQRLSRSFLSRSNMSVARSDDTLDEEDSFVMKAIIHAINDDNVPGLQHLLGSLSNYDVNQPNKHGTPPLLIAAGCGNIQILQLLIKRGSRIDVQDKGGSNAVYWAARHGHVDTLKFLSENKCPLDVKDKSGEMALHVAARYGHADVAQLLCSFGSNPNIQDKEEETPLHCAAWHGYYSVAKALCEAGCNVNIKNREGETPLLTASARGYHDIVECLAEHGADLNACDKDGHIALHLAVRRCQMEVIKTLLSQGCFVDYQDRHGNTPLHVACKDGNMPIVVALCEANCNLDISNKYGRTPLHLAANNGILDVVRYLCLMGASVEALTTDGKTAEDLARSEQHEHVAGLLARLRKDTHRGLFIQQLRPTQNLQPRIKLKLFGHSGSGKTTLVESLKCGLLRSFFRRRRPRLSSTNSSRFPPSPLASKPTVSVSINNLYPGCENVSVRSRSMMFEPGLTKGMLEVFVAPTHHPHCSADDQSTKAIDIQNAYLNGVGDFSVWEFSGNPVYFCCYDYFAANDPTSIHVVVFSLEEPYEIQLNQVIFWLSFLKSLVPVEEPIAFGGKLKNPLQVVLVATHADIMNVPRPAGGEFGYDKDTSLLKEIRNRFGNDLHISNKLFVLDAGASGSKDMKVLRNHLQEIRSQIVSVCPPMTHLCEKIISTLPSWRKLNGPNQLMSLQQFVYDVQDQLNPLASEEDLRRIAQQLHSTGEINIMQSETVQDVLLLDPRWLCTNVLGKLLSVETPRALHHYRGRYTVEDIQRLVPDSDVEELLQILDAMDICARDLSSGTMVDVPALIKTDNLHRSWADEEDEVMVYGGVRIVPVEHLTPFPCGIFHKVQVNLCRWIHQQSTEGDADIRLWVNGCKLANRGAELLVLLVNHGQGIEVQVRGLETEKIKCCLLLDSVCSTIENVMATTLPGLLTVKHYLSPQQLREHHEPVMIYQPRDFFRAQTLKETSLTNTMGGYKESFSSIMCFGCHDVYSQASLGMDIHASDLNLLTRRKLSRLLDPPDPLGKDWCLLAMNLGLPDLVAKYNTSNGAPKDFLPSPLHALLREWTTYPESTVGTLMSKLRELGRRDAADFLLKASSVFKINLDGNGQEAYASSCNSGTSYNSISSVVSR

DDR1 (human) = DDR1 (human) (UniProt Q08345)
EPHA1 (human) = EPHA1 (human) (UniProt P21709)
EPHA2 (human) = EPHA2 (human) (UniProt P29317)
FRK (human) = FRK (human) (UniProt P42685)
FRK (human), sequence (P42685 whole entry, looked up): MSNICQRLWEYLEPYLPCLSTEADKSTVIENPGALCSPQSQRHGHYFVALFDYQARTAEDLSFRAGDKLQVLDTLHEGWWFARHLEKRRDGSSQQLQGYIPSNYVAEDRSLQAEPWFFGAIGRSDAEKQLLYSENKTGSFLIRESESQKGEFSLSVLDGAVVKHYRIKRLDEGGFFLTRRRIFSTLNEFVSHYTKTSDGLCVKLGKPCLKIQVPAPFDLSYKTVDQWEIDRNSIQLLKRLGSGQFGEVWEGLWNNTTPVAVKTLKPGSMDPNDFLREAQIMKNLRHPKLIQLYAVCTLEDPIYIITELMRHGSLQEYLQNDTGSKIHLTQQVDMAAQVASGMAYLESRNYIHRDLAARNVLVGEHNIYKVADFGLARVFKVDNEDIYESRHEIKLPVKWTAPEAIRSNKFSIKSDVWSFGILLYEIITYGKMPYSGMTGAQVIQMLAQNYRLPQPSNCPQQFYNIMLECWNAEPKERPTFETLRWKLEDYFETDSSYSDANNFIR

MAPK11 (human) = MAPK11 (human) (UniProt Q15759)
MAPK11 (human), sequence (Q15759 whole entry, looked up): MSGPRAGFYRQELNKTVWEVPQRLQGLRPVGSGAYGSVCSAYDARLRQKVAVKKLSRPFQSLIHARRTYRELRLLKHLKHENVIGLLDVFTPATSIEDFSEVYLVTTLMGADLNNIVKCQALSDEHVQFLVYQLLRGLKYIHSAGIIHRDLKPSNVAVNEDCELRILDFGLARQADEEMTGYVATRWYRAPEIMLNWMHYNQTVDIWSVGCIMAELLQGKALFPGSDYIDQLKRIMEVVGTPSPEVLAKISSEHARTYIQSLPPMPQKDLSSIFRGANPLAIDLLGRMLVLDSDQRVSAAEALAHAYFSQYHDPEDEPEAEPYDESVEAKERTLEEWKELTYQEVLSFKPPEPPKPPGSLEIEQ

MAPK13 (human) = MAPK13 (human) (UniProt O15264)
MERTK (human) = MERTK (human) (UniProt Q12866)
MINK1 (human) = MINK1 (human) (UniProt Q8N4C8)
PAK7 (human) = PAK7 (human) (UniProt Q9P286)
PASK (human) = PASK (human) (UniProt Q96RG2)
PDK2 (human) = PDK2 (human) (UniProt Q15119)
PIM1 (human) = PIM1 (human) (UniProt P11309)
PIM1 (human), sequence (P11309 whole entry, looked up): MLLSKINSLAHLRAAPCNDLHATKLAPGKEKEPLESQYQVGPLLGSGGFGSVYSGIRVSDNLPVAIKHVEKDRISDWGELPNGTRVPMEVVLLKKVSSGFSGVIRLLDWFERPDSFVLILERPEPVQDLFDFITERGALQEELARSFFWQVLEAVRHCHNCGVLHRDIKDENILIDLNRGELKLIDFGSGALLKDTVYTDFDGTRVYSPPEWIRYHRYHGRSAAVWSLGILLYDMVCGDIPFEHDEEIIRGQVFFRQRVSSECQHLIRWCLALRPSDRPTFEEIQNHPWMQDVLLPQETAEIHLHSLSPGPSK

PRKACB (human) = PRKACB (human) (UniProt P22694)
PRKCE (human) = PRKCE (human) (UniProt Q02156)
PRKCQ (human) = PRKCQ (human) (UniProt Q04759)
PRKG2 (human) = PRKG2 (human) (UniProt Q13237)
PRKG2 (human), sequence (Q13237 whole entry, looked up): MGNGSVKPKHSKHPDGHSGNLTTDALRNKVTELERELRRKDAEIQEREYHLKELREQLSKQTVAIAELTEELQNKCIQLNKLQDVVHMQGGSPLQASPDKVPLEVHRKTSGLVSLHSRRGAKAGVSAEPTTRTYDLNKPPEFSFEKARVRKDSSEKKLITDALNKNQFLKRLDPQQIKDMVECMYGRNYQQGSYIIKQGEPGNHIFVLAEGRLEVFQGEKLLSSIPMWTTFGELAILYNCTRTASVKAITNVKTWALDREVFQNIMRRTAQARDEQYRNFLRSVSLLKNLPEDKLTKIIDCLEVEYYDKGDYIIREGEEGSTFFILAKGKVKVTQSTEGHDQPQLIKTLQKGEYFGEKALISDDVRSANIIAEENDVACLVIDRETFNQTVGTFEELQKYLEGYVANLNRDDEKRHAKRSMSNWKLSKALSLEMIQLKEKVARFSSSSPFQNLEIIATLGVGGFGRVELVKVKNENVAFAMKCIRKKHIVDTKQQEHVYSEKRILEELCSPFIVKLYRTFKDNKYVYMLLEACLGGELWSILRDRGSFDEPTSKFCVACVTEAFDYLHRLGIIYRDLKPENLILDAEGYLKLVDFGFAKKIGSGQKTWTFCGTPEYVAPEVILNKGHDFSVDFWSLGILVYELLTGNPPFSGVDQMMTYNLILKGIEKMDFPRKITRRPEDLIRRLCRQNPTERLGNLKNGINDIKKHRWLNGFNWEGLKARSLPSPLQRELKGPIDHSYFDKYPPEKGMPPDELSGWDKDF

PTK2 (human) = PTK2 (human) (UniProt Q05397)
RPS6KA3 KD1 KD2 (human) = RPS6KA3 KD1 KD2 (human) (UniProt P51812)
RPS6KA3 KD1 KD2 (human), sequence (P51812 whole entry, looked up): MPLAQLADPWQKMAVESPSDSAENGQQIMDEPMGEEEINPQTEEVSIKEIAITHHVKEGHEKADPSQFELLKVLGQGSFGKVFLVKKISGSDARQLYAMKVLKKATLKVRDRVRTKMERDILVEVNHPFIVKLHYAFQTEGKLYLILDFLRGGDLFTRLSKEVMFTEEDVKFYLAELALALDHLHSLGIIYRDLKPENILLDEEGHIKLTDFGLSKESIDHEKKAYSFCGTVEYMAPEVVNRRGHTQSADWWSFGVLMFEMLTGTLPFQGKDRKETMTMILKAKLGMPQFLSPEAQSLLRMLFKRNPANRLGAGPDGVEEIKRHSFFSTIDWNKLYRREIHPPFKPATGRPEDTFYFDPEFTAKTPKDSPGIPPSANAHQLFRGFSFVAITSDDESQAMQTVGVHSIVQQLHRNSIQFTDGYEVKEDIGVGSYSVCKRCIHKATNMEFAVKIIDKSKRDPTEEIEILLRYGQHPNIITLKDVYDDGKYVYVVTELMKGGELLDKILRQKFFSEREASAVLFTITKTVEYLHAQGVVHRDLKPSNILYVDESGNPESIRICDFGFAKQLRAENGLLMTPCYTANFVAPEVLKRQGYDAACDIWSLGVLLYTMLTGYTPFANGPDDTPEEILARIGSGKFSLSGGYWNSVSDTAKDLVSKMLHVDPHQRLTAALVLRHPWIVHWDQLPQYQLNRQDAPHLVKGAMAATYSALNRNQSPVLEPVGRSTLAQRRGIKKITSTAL

STK10 (human) = STK10 (human) (UniProt O94804)
STK24 (human) = STK24 (human) (UniProt Q9Y6E0)
SYK (human) = SYK (human) (UniProt P43405)
TEK (human) = TEK (human) (UniProt Q02763)
TSSK1B (human) = TSSK1B (human) (UniProt Q9BXA7)
TSSK1B (human), sequence (Q9BXA7 whole entry, looked up): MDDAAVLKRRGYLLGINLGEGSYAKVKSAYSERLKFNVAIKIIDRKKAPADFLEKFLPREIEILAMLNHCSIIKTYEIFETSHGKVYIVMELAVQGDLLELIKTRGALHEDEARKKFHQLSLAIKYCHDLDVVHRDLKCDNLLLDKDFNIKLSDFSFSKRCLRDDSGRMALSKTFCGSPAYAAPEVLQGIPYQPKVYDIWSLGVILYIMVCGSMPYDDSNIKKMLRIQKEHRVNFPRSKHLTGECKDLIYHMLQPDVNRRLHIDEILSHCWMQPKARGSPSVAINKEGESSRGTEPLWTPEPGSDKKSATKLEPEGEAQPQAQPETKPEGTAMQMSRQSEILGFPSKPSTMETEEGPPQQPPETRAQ

WNK1 (human) = WNK1 (human) (UniProt Q9H4A3)

Q: Which results are given for `Cc1ccc(Nc2nccc(N(C)c3ccc4c(C)n(C)nc4c3)n2)cc1S(N)(=O)=O`?
A: inhibition (AKT1 (human); compound 0.02 µM): -2.3%; inhibition (AKT1 (human); compound 0.2 µM): -2.2%; inhibition (AURKC (human); compound 0.02 µM): -0.4%; inhibition (AURKC (human); compound 0.2 µM): 21.5%; inhibition (CAMK2G (human); compound 0.02 µM): 1.9%; inhibition (CAMK2G (human); compound 0.2 µM): 2%; inhibition (CDC42BPB (human); compound 0.02 µM): 1.8%; inhibition (CDC42BPB (human); compound 0.2 µM): 2.9%; inhibition (CDK1 (human); compound 0.02 µM): -2.9%; inhibition (CDK1 (human); compound 0.2 µM): -1.5%; inhibition (CDK4 (human)): 13.2%; inhibition (CSNK1D (human); compound 0.02 µM): -1.8% and -2.9%; inhibition (CSNK1D (human); compound 0.2 µM): -2.9% and -3.3%; inhibition (DAPK1 (human); compound 0.02 µM): 6.5%; inhibition (DAPK1 (human); compound 0.2 µM): 6.7%; inhibition (DDR1 (human); compound 0.02 µM): 19.6%; inhibition (DDR1 (human); compound 0.2 µM): 80.9%; inhibition (EPHA1 (human); compound 0.02 µM): -1.3%; inhibition (EPHA1 (human); compound 0.2 µM): 15.3%; inhibition (EPHA2 (human); compound 0.02 µM): -5%; inhibition (EPHA2 (human); compound 0.2 µM): -2.8%; inhibition (FRK (human); compound 0.02 µM): 10.3%; inhibition (FRK (human); compound 0.2 µM): 47.3%; inhibition (MAPK11 (human); compound 0.02 µM): -6.7%; inhibition (MAPK11 (human); compound 0.2 µM): 0.9%; inhibition (MAPK13 (human); compound 0.02 µM): -3.6%; inhibition (MAPK13 (human); compound 0.2 µM): -3.8%; inhibition (MERTK (human); compound 0.02 µM): 3%; inhibition (MERTK (human); compound 0.2 µM): 15.6%; inhibition (MINK1 (human); compound 0.02 µM): 2%; inhibition (MINK1 (human); compound 0.2 µM): 10.8%; inhibition (PAK7 (human); compound 0.02 µM): 9%; inhibition (PAK7 (human); compound 0.2 µM): 1.3%; inhibition (PASK (human); compound 0.02 µM): -0.6%; inhibition (PASK (human); compound 0.2 µM): 3.1%; inhibition (PDK2 (human); compound 0.02 µM): -2.3%; inhibition (PDK2 (human); compound 0.2 µM): -4.2%; inhibition (PIM1 (human); compound 0.02 µM): -4.2%; inhibition (PIM1 (human); compound 0.2 µM): 0.8%; inhibition (PRKACB (human); compound 0.02 µM): -1.5%; inhibition (PRKACB (human); compound 0.2 µM): -7.3%; inhibition (PRKCE (human); compound 0.02 µM): 5.8%; inhibition (PRKCE (human); compound 0.2 µM): -8.2%; inhibition (PRKCQ (human); compound 0.02 µM): 1.7%; inhibition (PRKCQ (human); compound 0.2 µM): 0.5%; inhibition (PRKG2 (human); compound 0.02 µM): -2.3%; inhibition (PRKG2 (human); compound 0.2 µM): -2.6%; inhibition (PTK2 (human); compound 0.02 µM): -2%; inhibition (PTK2 (human); compound 0.2 µM): 8.3%; inhibition (RPS6KA3 KD1 KD2 (human); compound 0.02 µM): 0.7%; inhibition (RPS6KA3 KD1 KD2 (human); compound 0.2 µM): 3.1%; inhibition (STK10 (human); compound 0.02 µM): 8.8%; inhibition (STK10 (human); compound 0.2 µM): 39.2%; inhibition (STK24 (human); compound 0.02 µM): 0.2%; inhibition (STK24 (human); compound 0.2 µM): 3.4%; inhibition (SYK (human); compound 0.02 µM): 4.4%; inhibition (SYK (human); compound 0.2 µM): -4.7%; inhibition (TEK (human); compound 0.02 µM): -4.6%; inhibition (TEK (human); compound 0.2 µM): 2.7%; inhibition (TSSK1B (human); compound 0.02 µM): -1.1%; inhibition (TSSK1B (human); compound 0.2 µM): -1.7%; inhibition (WNK1 (human); compound 0.02 µM): 1.6%; inhibition (WNK1 (human); compound 0.2 µM): 5.1%
